Assay results: the supplement of paper PMC10307832

Assays:
Assay in all cases: relative viability (nuclei count vs DMSO), 5 days (fraction); higher = more cells survive
[1] = test system: NCI-H1651
Summary of the method: (§1)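 Nuclei were stained with Hoechst during a one-step fixation (final 0.05% Triton X-100, 1% formaldehyde, 1 ug/ml Hoechst) carried out 5 days after dosing, then counted on 4× images. The cells, lung cancer lines in 1536-well plates, had been dosed by pin tool the day after seeding with one drug alone or a fixed anchor-drug dose plus five library-drug doses (not always all listed) in √10 steps. Relative viability is the nuclei count in treated wells divided by that in vehicle wells, and each value is the median of duplicate plates.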

[2] = test system: NCI-H1944
Summary of the method: as §1

[3] = test system: ChaGo-K-1
Summary of the method: as §1

[4] = test system: NCI-H2087
Summary of the method: as §1

[5] = test system: NCI-H3122
Summary of the method: as §1

[6] = test system: LCLC-97TM1
Summary of the method: as §1

[7] = test system: EMC-BAC-2
Summary of the method: as §1

[8] = test system: PC-14
Summary of the method: as §1

[9] = test system: NCI-H522
Summary of the method: as §1

[10] = test system: NCI-H2405
Summary of the method: as §1

[11] = test system: NCI-H650
Summary of the method: as §1

[12] = test system: NCI-H596
Summary of the method: as §1

[13] = test system: NCI-H1915
Summary of the method: as §1

[14] = test system: NCI-H322M
Summary of the method: as §1

[15] = test system: NCI-H2126
Summary of the method: as §1

[16] = test system: NCI-H838
Summary of the method: as §1

[17] = test system: NCI-H1734
Summary of the method: as §1

[18] = test system: NCI-H441
Summary of the method: as §1

[19] = test system: LXF-289
Summary of the method: as §1

[20] = test system: NCI-H1793
Summary of the method: as §1

[21] = test system: NCI-H1395
Summary of the method: as §1

SMILES: Nc1cccc2c1CN(C1CCC(=O)NC1=O)C2=O (stereo not given) [Lenalidomide] + NC(=O)Nc1cc(-c2cccc(F)c2)sc1C(=O)N[C@H]1CCCNC1 [AZD7762] (partner 0.2 µM)
- relative viability ([1]; first compound 0.253 µM): 0.506
- relative viability ([1]; first compound 0.8 µM): 0.436
- relative viability ([1]; first compound 2.53 µM): 0.568
- relative viability ([1]; first compound 8 µM): 0.44
- relative viability ([2]; first compound 0.253 µM): 0.545
- relative viability ([2]; first compound 2.53 µM): 0.709
- relative viability ([2]; first compound 8 µM): 0.386
- relative viability ([3]; first compound 0.253 µM): 0.916
- relative viability ([3]; first compound 0.8 µM): 0.853
- relative viability ([3]; first compound 2.53 µM): 1.02
- relative viability ([3]; first compound 8 µM): 0.893
- relative viability ([4]; first compound 0.253 µM): 1.29
- relative viability ([4]; first compound 2.53 µM): 1.29
- relative viability ([4]; first compound 8 µM): 1.23
- relative viability ([5]; first compound 0.253 µM): 0.938
- relative viability ([5]; first compound 0.8 µM): 1.03
- relative viability ([5]; first compound 2.53 µM): 1.06
- relative viability ([5]; first compound 8 µM): 0.966
- relative viability ([6]; first compound 0.253 µM): 0.304
- relative viability ([6]; first compound 0.8 µM): 0.114
- relative viability ([6]; first compound 2.53 µM): 0.364
- relative viability ([6]; first compound 8 µM): 0.222
- relative viability ([7]; first compound 0.253 µM): 1.12
- relative viability ([7]; first compound 0.8 µM): 0.64
- relative viability ([7]; first compound 2.53 µM): 1.19
- relative viability ([7]; first compound 8 µM): 0.931
- relative viability ([8]; first compound 0.253 µM): 0.384
- relative viability ([8]; first compound 0.8 µM): 0.297
- relative viability ([8]; first compound 2.53 µM): 0.386
- relative viability ([8]; first compound 8 µM): 0.427
- relative viability ([9]; first compound 0.253 µM): 0.858
- relative viability ([9]; first compound 0.8 µM): 0.882
- relative viability ([9]; first compound 2.53 µM): 0.758
- relative viability ([9]; first compound 8 µM): 0.758
- relative viability ([10]; first compound 0.253 µM): 0.681
- relative viability ([10]; first compound 0.8 µM): 0.498
- relative viability ([10]; first compound 2.53 µM): 0.815
- relative viability ([10]; first compound 8 µM): 0.821
- relative viability ([11]; first compound 0.253 µM): 1.06
- relative viability ([11]; first compound 0.8 µM): 0.927
- relative viability ([11]; first compound 2.53 µM): 1.06
- relative viability ([11]; first compound 8 µM): 0.89
- relative viability ([12]; first compound 0.253 µM): 1.13
- relative viability ([12]; first compound 0.8 µM): 1.09
- relative viability ([12]; first compound 2.53 µM): 1.1
- relative viability ([12]; first compound 8 µM): 1
- relative viability ([13]; first compound 0.253 µM): 0.678
- relative viability ([13]; first compound 0.8 µM): 0.699
- relative viability ([13]; first compound 2.53 µM): 0.739
- relative viability ([13]; first compound 8 µM): 0.682
- relative viability ([14]; first compound 0.253 µM): 0.543
- relative viability ([14]; first compound 0.8 µM): 0.55
- relative viability ([14]; first compound 2.53 µM): 0.596
- relative viability ([14]; first compound 8 µM): 0.442
- relative viability ([15]; first compound 0.253 µM): 0.973
- relative viability ([15]; first compound 0.8 µM): 1.03
- relative viability ([15]; first compound 2.53 µM): 1.05
- relative viability ([15]; first compound 8 µM): 0.947
- relative viability ([16]; first compound 0.253 µM): 0.938
- relative viability ([16]; first compound 0.8 µM): 0.871
- relative viability ([16]; first compound 2.53 µM): 0.962
- relative viability ([16]; first compound 8 µM): 1.03
- relative viability ([17]; first compound 0.253 µM): 0.586
- relative viability ([17]; first compound 0.8 µM): 0.597
- relative viability ([17]; first compound 2.53 µM): 0.618
- relative viability ([17]; first compound 8 µM): 0.494
- relative viability ([18]; first compound 0.253 µM): 1.3
- relative viability ([18]; first compound 0.8 µM): 1.15
- relative viability ([18]; first compound 2.53 µM): 1.17
- relative viability ([18]; first compound 8 µM): 1.26
- relative viability ([19]; first compound 0.253 µM): 1.09
- relative viability ([19]; first compound 0.8 µM): 1.1
- relative viability ([19]; first compound 2.53 µM): 1.23
- relative viability ([19]; first compound 8 µM): 1.26
- relative viability ([20]; first compound 0.253 µM): 0.476
- relative viability ([20]; first compound 2.53 µM): 0.821
- relative viability ([20]; first compound 8 µM): 0.389
- relative viability ([21]; first compound 0.253 µM): 0.405
- relative viability ([21]; first compound 2.53 µM): 0.387
- relative viability ([21]; first compound 8 µM): 0.376
